Data: patent US11260066B2, “Inhibiting reduction of lean body mass and inhibiting accumulation of liver fat by administering allulose” (SAMYANG CORPORATION, priority 2017, dated 2022)

Experiments:
[1] = parameters: species or system human; conditions: in vivo
[2] = Glucose index test (FBS, Insulin, HbA1c) on collected blood, human application test; type: in vivo; conditions: for Glucose, 12 W, Mean / Glucose, 12 W, Median / HbA1, 12 W, Mean / HbA1, 12 W, Median / Insulin, 12 W, Mean / Insulin, 12 W, Median / Glucose, Difference (12 W vs baseline) / Insulin, Difference (12 W vs baseline): ITT 33
Excerpt: After conducting a screening test for those who heard the detailed description of the purpose and research method of the present example and agreed in writing as subjects, those who met the selection/exclusion criteria were selected. The specific selection criteria are as follows, and the final selected subjects are 99 men and women who are overweight or obese, and the demographic information of the selected subjects is shown in the following Table 1. Ninety nine (99) subjects were randomly assigned to the high-dose group, low-dose group or control group, with including 33 subjects in each test group. In three test groups, the products were mixed in 100 ml of water and were administered orally twice a day. As the daily dose for one test subject, 12 g allulose in the high-dose group, 6 g allulose and 6 g anhydrous glucose in the low-dose group, and 12 g anhydrous glucose in the control group were divided and provided twice a day. It was administered from the day after the random assignment day (0 day), and was taken with drinking water twice at morning and evening with meals for 12 weeks. At the time of screening hospital visit (visit1), visit2 and final visit (visit5), FBS, Insulin, and HbAlc test was conducted for the collected blood. After calculating the average change of the glucose index (FBS, Insulin, HbAlc) after 12 weeks compared to the base time, technical statistics (mean, standard deviation, median value, minimum value, maximum value) were obtained. The comparative statistic test for the three groups was performed using ANOVA or Kruscal-Wallis test by testing whether data were normally distributed. When there was a significant difference between the three groups, the multiple comparisons were conducted through Tukey-Kramer method. In order to find out whether there was a difference in the mean change in a group, it was analyzed using Paired t-test or Wilcoxon's signed rank test.

[3] = Liver CT: degree of fat deposition in the liver (HU of liver and spleen), human application test; type: in vivo; conditions: for Liver HU Mean, 12 W, Mean / Liver - Spleen HU (Liver minus Spleen), 12 W, Mean / Spleen HU Mean, 12 W, Mean: 12 weeks; for Liver HU Mean, 12 W, Mean / Liver HU Mean, Difference (12 W vs base line): ITT 33
Excerpt: After conducting a screening test for those who heard the detailed description of the purpose and research method of the present example and agreed in writing as subjects, those who met the selection/exclusion criteria were selected. The specific selection criteria are as follows, and the final selected subjects are 99 men and women who are overweight or obese, and the demographic information of the selected subjects is shown in the following Table 1. Ninety nine (99) subjects were randomly assigned to the high-dose group, low-dose group or control group, with including 33 subjects in each test group. In three test groups, the products were mixed in 100 ml of water and were administered orally twice a day. As the daily dose for one test subject, 12 g allulose in the high-dose group, 6 g allulose and 6 g anhydrous glucose in the low-dose group, and 12 g anhydrous glucose in the control group were divided and provided twice a day. It was administered from the day after the random assignment day (0 day), and was taken with drinking water twice at morning and evening with meals for 12 weeks. In order to evaluate the degree of fat deposition in the liver at the time of hospital visit 2 and visit 5, the HU of liver, HU of spleen, HU difference of liver and spleen (Liver minus Spleen), and HU ratio of liver and spleen (Ratio Between Liver and Spleen) after 12 weeks compared to the base time were measured. CT attenuation values (Hounsfield units) were measured in regions of interest (ROI) selected as a homogeneous place avoiding blood vessels in the right lobe of liver and spleen in one non-contrast-enhanced abdominal CT image including both liver and spleen three times, and the average value was taken as each CT attenuation number. Then, the size of each region of interest was designated equally as 120 mm^2. Through liver CT, for HU of liver, HU of spleen, HU difference of liver and spleen (Liver minus Spleen), and HU ratio of liver and spleen (Ratio Between Liver and Spleen) after 12 weeks, technical statistics (mean, standard deviation, median value, minimum value, maximum value) were proposed for the average change compared to the base time. The comparative statistic test for the three groups was performed using ANOVA or Kruscal-Wallis test by testing whether data were normally distributed. When there was a significant difference between the three groups, the multiple comparisons were conducted through Tukey-Kramer method. In order to find out whether there was a difference in the mean change in a group, it was analyzed using Paired t-test or Wilcoxon's signed rank test.

[4] = high-dose group: allulose 12 g/d oral, 12 weeks
[5] = high-dose group: allulose 12 g/d oral
[6] = low-dose group: allulose 6 g/d + anhydrous glucose 6 g/d oral, 12 weeks
[7] = low-dose group: allulose 6 g/d + anhydrous glucose 6 g/d oral
[8] = high-dose group: allulose 12 g/d oral, N 33
[9] = low-dose group: allulose 6 g/d + anhydrous glucose 6 g/d oral, N 32

O=C(CO)C(O)C(O)C(O)CO (stereo not drawn) [allulose]
diastolic blood pressure and pulse rate [1]: did not showed statistically significant difference between three groups
hypoglycemic effect (Glucose, Insulin, HbA1c) ([2]; high- and low-dose groups, 12 weeks, subjects with normal blood sugar): no hypoglycemic effect
Glucose, 12 W, Mean [2, 4]: 94.58 mg/dL
Glucose, 12 W, Median [2, 4]: 94.00 mg/dL
HbA1, 12 W, Mean [2, 4]: 5.66%
HbA1, 12 W, Median [2, 4]: 5.6%
Insulin, 12 W, Mean [2, 4]: 8.7 µIU/mL
Insulin, 12 W, Median [2, 4]: 7.5 µIU/mL
Glucose, Difference (12 W vs baseline) [2, 5]: -0.12 ± 8.35 mg/dL
Insulin, Difference (12 W vs baseline) [2, 5]: 1.75 ± 5.33 µIU/mL
Glucose, 12 W, Mean [2, 6]: 97.18 mg/dL
Glucose, 12 W, Median [2, 6]: 97.00 mg/dL
HbA1, 12 W, Mean [2, 6]: 5.64%
HbA1, 12 W, Median [2, 6]: 5.6%
Insulin, 12 W, Mean [2, 6]: 9.18 µIU/mL
Insulin, 12 W, Median [2, 6]: 7.1 µIU/mL
Glucose, Difference (12 W vs baseline) [2, 7]: 2.42 ± 10.10 mg/dL
Insulin, Difference (12 W vs baseline) [2, 7]: 1.27 ± 5.15 µIU/mL
Liver HU Mean, 12 W, Mean [3, 5]: 57.49 HU
Liver - Spleen HU (Liver minus Spleen), 12 W, Mean [3, 8]: 7.19 HU
Spleen HU Mean, 12 W, Mean [3, 8]: 50.30 HU
Liver HU Mean, Difference (12 W vs base line) [3, 5]: −0.78 ± 5.60 HU
Liver - Spleen HU, Difference (12 W vs base line) [3, 8]: −1.28 ± 5.36 HU
Spleen HU Mean, Difference (12 W vs base line) [3, 8]: 0.50 ± 2.77 HU
Liver HU Mean, 12 W, Mean [3, 7]: 55.17 HU
Liver - Spleen HU (Liver minus Spleen), 12 W, Mean [3, 9]: 4.75 HU
Spleen HU Mean, 12 W, Mean [3, 9]: 50.66 HU
Liver HU Mean, Difference (12 W vs base line) [3, 7]: −0.69 ± 5.17 HU
Liver - Spleen HU, Difference (12 W vs base line) [3, 9]: −0.55 ± 5.43 HU
Spleen HU Mean, Difference (12 W vs base line) [3, 9]: −0.41 ± 2.34 HU
